Patent US9512481B2, “Polymorphisms in the PDE3A gene” (The Regents of the University of Colorado, a body corporate, priority 2009, dated 2016)
One block for each compound: values may come before it.

Legend:
PDE3A promoter = experiment: PDE3A Ins or Del promoter-luciferase constructs transfected into NRVMs; type: cell-based, rat; details: for promoter response: Del construct with deletion of the CREB binding site (CRE) at −1070, NRVMs; for promoter (transcriptional) activity: NRVMs
[1] = system: Evi-1 transcription factor mRNA; experiment: Evi-1 mRNA expression in explanted left ventricular samples from heart failure patients treated with enoximone; type: in vivo, human; details: explanted LV samples from HF patients treated with enoximone; compared to non-failing, no enoximone
PDE3A mRNA = PDE3A mRNA abundance in LVs explanted from end-stage HF patients, by PDE3A promoter Ins/Del genotype; type: in vivo, human

Compound: Nc1ncnc2c1ncn2[C@@H]1O[C@@H]2COP(=O)(O)O[C@H]2[C@H]1O [cAMP, cyclic AMP]
induction of Evi-1 (Evi-1): 16 fold

Compound: CCCC(=O)Nc1ncnc2c1ncn2[C@@H]1O[C@@H]2COP(=O)(O)O[C@H]2[C@H]1OC(=O)CCC [dbcAMP]
promoter response (PDE3A promoter): abolishes the promoter response

promoter response (PDE3A promoter): abolishes the promoter response
Compound: CSc1ccc(C(=O)c2[nH]c(=O)[nH]c2C)cc1 [enoximone]
mRNA expression of Evi-1 [1]: increased | PDE3A mRNA abundance (PDE3A mRNA; Del carriers (homozygous or heterozygous for PDE3A Del, n=9) treated with enoximone, compared to Del patients not receiving enoximone (n=19), p<0.001): 2.1±0.3 fold | PDE3A gene expression (PDE3A mRNA; patients homozygous for the Ins (Ins/Ins) treated with enoximone, p=0.7): 1.1±0.3 fold

promoter (transcriptional) activity (PDE3A promoter; Del PDE3A promoter-luciferase construct (lacks the 29 nucleotide sequence)): increased promoter activity | promoter (transcriptional) activity (PDE3A promoter; Ins PDE3A promoter-luciferase construct (29 nucleotide sequence present)): does not go up
Compound: CC(C)NCC(O)c1ccc(O)c(O)c1 (centres unmarked) [isoproterenol]
